The source of these data is patent US4814340A, “1,4-diaryl alkane derivatives having insecticidal and acaricidal activity” (priority 1982, dated 1989).

In general, mortality refers to the share of the test organisms that died.

SMILES strings stand for the structures. Like-named read-outs stand apart in the source and are kept apart here.

In series [1] the test system is common cutworm (third-instar larvae). The series can be described thus: Test 1 (Effect on Common Cutworm). It is filed as in vivo. The settings on record: Spodoptera litura, 48 hours, third-instar larvae, read-out: Mortality (%). Here is the method: (§1) Compounds (a) through (g) described below were tested as comparative compounds in the same manner as the compounds of the present invention. All the tests were doubly carried out. Namely, each result was expressed by an average value of two data.
The emulsifiable concentrate of the test compound, prepared according to the method described in Formulation Example 1, was diluted with water to a specified concentration. Sweet potato leaves were sufficiently immersed in the dilution. The sweet potato leaves were dried and placed in a plastic cup having a diameter of 10 cm, and 10 third-instar larvae of common cutworm were set free in each cup. 48 hours after, the numbers of killed and living larvae were counted and the mortality was calculated.

Series [2] has as its system green rice leafhopper (female adults). The series can be described thus: Test 2 (Effect on Green Rice Leafhopper). It is filed as in vivo. The settings on record: Nephotettix cincticeps, 48 hours, female adults, read-out: Mortality (%). As to the method: as §1
Four or five seedlings of paddy rice with three leaves were bundled, and thereon the same dilution of the emulsifiable concentrate as used in Test 1 was sprayed in an amount of 3 ml. The bundle was dried and covered with a metal net cylinder, and 10 female adults of green rice leafhopper were set free in the cylinder. 48 hours after, the number of killed adults was counted.

The test system of series [3] is two-spotted spider mite (adults). The series can be described thus: Test 4 (Effect on Two-Spotted Spider Mite). It is filed as in vivo. Particulars: Tetranychus urticae; 200 ppm; 24 hours; adults; read-out: Mortality (%). As to the method:
as §1
A kidney bean leaf disc (20 mm in diameter) perforated with a cork borer was placed on water-impregnated absorbent cotton, and thereon 20 adults of two-spotted spider mite were set free, and the resulting set was allowed to stand around the clock. The same dilution of the emulsifiable concentrate of a test compound having a concentration of 200 ppm as used in Test 1 and Test 2, was applied by an applicator having a diameter of 20 cm and a height of 60 cm in an amount of 3 ml. 24 hours after, the number of killed adults was counted.

Series [4] deals with German cockroach (female adults). The series can be described thus: Test 3 (Effect on German Cockroach). It counts as in vivo, Blatella germanica (German cockroach). The settings on record: Blattella germanica. Here is the method:
as §1
One ml of an acetone solution of a test compound of a specified concentration was poured in a high Petri dish having a diameter of 9 cm and a height of 9 cm. The Petri dish was allowed to stand, and thereby the acetone was evaporated. The upper part of the inner wall of the Petri dish was treated with butter to prevent the adults of German cockroach from escaping from the Petri dish. 10 female adults of German cockroach were set free in each Petri dish. 48 hours after, the number of killed adults was counted.

The next series concerns yearling carps. The series can be described thus: Test 5 (Fish Toxicity). It is filed as in vivo, carp. As to the method: as §1
A water tank having a width of 60 cm, a length of 30 cm and a height of 40 cm was filled with water, and 10 yearling carps having a body length of about 5 cm were set free in the tank and adapted to the environment in the tank. An acetone solution of a test compound was applied into water so as to become a concentration of 1 or 0.1 ppm in water by adding said acetone solution at a rate of one part by volume per 100 parts by volume of water. 48 hours after, the number of killed and living carps was counted and the effect of a test compound on carps was examined.

Setting [5] is: 1 mg/m^2, 48 hours, female adults, read-out: Mortality (%).
The mark [6] stands for this setting: 5 mg/m^2, 48 hours, female adults, read-out: Mortality (%).

Consider `CC(C)Oc1ccc(C(C)(C)CCCc2cccc(Oc3ccccc3)c2)cc1` [Compound 9, 1-(3-phenoxyphenyl)-4-(4-isopropoxyphenyl)-4-methylpentane], for which, in series [1], the mortality at 20 ppm came to 100% and the mortality at 100 ppm is 100%. Moreover, in series [2], the mortality at 20 ppm was 100% and the mortality at 100 ppm worked out at 100%. The mortality at 200 ppm in series [3] came to 100%.

Take `CCOc1ccc(C(C)(C)CCCc2cccc(Oc3ccccc3)n2)cc1` [Compound 19]: in series [1], the mortality at 20 ppm came to 70% and the mortality at 100 ppm worked out at 100%. For the same molecule, the mortality at 200 ppm in series [3] amounted to 43%.

For the molecule `CC(C)(CCCc1cccc(Oc2ccccc2)c1)c1ccc(OC(F)(F)CCl)cc1` [Compound 35], in series [1], the mortality at 20 ppm came to 100% and the mortality at 100 ppm was found to be 100%. In series [4] (48 h), this molecule had a mortality at 1 mg/m2 of 70% and a mortality at 5 mg/m2 of 100%. Moreover, the mortality at 200 ppm in series [3] amounted to 85%. The “Mortality(%) 48 Hours After” value with yearling carps (0.1 ppm in water) came to 0%. Also, the “Mortality(%) 48 Hours After” value in the series on yearling carps (1 ppm in water) turned out to be 0%.

Consider `CC(C)(C)c1ccc(C(C)(C)CCCc2ccc(F)c(Oc3ccccc3)c2)cc1` [Compound 44], for which, in series [1], the mortality at 20 ppm stood at 40% and the mortality at 100 ppm was determined as 90%. The mortality at 200 ppm in series [3] came out at 85%.

`CCc1ccc(C(C)(C)CCCc2ccc(F)c(Oc3ccccc3)c2)cc1` [Compound 52]: the mortality at 20 ppm in series [1] and in series [2] was 100% in each case. Moreover, the mortality at 100 ppm in series [1] and in series [2] was 100% throughout. Besides, the mortality at 1 mg/m2 in series [4] (setting [5]) is 70%. For the same molecule, the mortality at 5 mg/m2 in series [4] (setting [6]) came to 100%. In addition, in series [3], the mortality at 200 ppm turned out to be 100%.

Consider `CC(C)(CCCc1ccc(F)c(Oc2ccc(F)cc2)c1)c1ccc(Cl)cc1` [Compound 53], for which, in series [2], the mortality at 20 ppm turned out to be 100% and the mortality at 100 ppm stood at 100%. Also, in series [4] (setting [5]), the mortality at 1 mg/m2 came to 80%. For the same molecule, the mortality at 5 mg/m2 in series [4] (setting [6]) was found to be 100%. In series [3], the mortality at 200 ppm was found to be 100%.

With `CC(C)(CCC(C#N)c1cccc(Oc2ccccc2)c1)c1ccc(Cl)cc1` (stereo not shown) [Compound 54, 1-(3-Phenoxyphenyl)-1-cyano-4-(4-chlorophenyl)-4-methylpentane], in series [1], the mortality at 20 ppm came out at 45% and the mortality at 100 ppm came to 90%. In series [2], the mortality at 20 ppm came to 50% and the mortality at 100 ppm amounted to 90%. The mortality at 200 ppm in series [3] stood at 100%.

Turning to `CC(C)c1ccc(C(C)(C)CCCc2ccc(F)c(Oc3ccccc3)c2)cc1` [Compound 56], in series [2], the mortality at 20 ppm came to 100% and the mortality at 100 ppm came out at 100%. The mortality at 1 mg/m2 in series [4] (setting [5]) was 40%. The mortality at 5 mg/m2 in series [4] (setting [6]) is 100%. In addition, the mortality at 200 ppm in series [3] came out at 100%.

Regarding `CC(C)(CCCc1cccc(Oc2ccccc2)c1)c1ccc(OCCF)cc1` [Compound 60], in series [1], the mortality at 20 ppm amounted to 90% and the mortality at 100 ppm worked out at 100%. Also, in series [2], the mortality at 20 ppm came out at 100% and the mortality at 100 ppm amounted to 100%. For the same molecule, the mortality at 200 ppm in series [3] is 90%.

Take `CCOC(=O)c1ccc(C(C)(C)CCCc2cccc(Oc3ccccc3)c2)cc1` [Compound 64]: in series [1], the mortality at 20 ppm is 40% and the mortality at 100 ppm was determined as 90%. In addition, in series [3], the mortality at 200 ppm was 70%.

As for `CC(C)(CCCc1ccc(F)c(Oc2ccccc2)c1)c1ccc(OC(F)(F)C(F)F)cc1` [Compound 66], the mortality at 20 ppm in series [1] and in series [2] was 100% each time. Moreover, the mortality at 100 ppm in series [1] and in series [2] was 100% throughout. Moreover, the mortality at 1 mg/m2 in series [4] (setting [5]) is 65%. For the same molecule, in series [4] (setting [6]), the mortality at 5 mg/m2 was determined as 100%. Also, the mortality at 200 ppm in series [3] was found to be 100%.
